# Measurements: ChEMBL document CHEMBL3399935, “Structure-activity relationships of benzhydrol derivatives based on 1'-acetoxychavicol acetate (ACA) and their inhibitory activities on multiple myeloma cell growth via inactivation of the NF-κB pathway” (Bioorg Med Chem, 2015)
# Calls of active or inactive are those of the source. The calls are words filed in the database; no cut-off is given here.
# Legend:
# [1] = Cytotoxicity against human HL60 cells assessed as growth inhibition after 3 days; assay type: functional, cell-based; details: HL-60, 72 h
# [2] = biological target: T1, Nuclear factor NF-kappa-B complex (Homo sapiens) (UniProt Q00653+P19838+Q04206); assay: Inhibition of NF-kappaB in human IM9 cells assessed as inhibition of nuclear translocation at 10 uM after 30 mins by NF-kappaB (p65) transcription factor assay; assay type: cell-based; details: IM-9
# IM-9 = assay: Cytotoxicity against human IM9 cells assessed as growth inhibition at 10 uM after 3 days; assay type: functional, cell-based
# [3] = biological target: T1, Nuclear factor NF-kappa-B complex (Homo sapiens); assay: Inhibition of NF-kappaB in human IM9 cells assessed as inhibition of nuclear translocation at 1 uM after 30 mins by NF-kappaB (p65) transcription factor assay; assay type: cell-based; details: IM-9
# [4] = Cytotoxicity against human IM9 cells assessed as growth inhibition after 3 days; assay type: functional, cell-based; details: IM-9, 72 h
# HL-60 = assay: Cytotoxicity against human HL60 cells assessed as growth inhibition at 10 uM after 3 days; assay type: functional, cell-based
# T1 sequence (P19838 whole entry, looked up): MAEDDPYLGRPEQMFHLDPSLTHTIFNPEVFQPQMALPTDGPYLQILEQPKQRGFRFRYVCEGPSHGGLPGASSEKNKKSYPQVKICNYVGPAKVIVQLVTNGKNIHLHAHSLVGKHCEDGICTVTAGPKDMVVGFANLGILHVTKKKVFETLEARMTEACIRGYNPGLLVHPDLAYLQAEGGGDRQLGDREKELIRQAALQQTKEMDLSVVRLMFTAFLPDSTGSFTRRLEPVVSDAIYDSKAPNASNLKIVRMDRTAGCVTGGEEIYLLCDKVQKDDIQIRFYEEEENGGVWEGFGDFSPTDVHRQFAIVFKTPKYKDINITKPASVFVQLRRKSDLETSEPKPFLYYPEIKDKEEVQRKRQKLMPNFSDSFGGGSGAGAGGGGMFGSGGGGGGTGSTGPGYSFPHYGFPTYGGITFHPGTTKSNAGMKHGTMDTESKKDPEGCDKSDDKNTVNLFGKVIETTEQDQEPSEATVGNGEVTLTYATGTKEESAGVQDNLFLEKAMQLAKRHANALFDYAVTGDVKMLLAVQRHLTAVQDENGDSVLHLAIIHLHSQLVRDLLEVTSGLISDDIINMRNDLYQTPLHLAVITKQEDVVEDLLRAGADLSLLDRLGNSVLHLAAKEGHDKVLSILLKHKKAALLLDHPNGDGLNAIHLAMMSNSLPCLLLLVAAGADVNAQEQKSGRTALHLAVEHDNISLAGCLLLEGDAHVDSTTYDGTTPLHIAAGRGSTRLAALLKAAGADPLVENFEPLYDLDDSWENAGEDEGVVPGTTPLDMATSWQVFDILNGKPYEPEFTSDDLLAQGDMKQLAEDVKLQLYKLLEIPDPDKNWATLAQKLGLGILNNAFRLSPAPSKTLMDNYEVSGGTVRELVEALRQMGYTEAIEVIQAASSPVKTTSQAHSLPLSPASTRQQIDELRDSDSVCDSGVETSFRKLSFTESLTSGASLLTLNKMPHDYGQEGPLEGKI
# T1 sequence (Q00653 whole entry, looked up): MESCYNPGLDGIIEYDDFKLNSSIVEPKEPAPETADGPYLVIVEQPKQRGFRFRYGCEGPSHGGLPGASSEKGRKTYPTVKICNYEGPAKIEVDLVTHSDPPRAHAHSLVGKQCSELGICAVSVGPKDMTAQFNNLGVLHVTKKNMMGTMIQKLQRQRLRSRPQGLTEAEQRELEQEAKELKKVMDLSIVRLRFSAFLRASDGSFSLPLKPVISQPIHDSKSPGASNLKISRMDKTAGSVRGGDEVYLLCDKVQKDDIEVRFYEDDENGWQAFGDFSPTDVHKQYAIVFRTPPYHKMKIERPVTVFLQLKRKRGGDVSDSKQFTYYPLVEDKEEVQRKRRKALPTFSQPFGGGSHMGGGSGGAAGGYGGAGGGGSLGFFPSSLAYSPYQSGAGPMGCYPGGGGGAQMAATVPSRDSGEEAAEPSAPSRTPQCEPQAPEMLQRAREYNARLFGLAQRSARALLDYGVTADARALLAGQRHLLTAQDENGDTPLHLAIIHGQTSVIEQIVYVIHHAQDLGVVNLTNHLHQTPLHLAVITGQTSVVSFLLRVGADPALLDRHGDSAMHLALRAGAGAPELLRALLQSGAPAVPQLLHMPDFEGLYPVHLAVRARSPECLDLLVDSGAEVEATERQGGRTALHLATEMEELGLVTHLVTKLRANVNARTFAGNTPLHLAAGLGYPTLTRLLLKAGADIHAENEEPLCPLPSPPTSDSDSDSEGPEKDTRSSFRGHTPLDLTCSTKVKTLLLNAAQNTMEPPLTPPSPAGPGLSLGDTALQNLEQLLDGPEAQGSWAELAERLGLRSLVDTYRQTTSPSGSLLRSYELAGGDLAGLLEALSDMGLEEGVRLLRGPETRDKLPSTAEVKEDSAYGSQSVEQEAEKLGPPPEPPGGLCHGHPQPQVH
# T1 sequence (Q04206 whole entry, looked up): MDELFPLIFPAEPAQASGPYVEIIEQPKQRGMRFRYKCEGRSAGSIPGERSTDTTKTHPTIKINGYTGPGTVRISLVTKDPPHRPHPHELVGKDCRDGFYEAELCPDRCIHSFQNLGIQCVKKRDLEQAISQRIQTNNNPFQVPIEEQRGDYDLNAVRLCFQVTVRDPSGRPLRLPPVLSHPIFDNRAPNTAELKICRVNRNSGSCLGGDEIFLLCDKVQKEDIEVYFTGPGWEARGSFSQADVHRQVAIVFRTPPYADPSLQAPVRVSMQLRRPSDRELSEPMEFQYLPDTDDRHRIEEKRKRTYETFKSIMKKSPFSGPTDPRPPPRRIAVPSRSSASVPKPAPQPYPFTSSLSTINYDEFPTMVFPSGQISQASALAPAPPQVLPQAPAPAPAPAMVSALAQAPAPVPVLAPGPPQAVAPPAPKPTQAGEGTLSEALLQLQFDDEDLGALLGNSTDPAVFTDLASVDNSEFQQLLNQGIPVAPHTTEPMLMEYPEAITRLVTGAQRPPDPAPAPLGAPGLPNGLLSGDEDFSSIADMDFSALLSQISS
Compound,IC50 [1],inhibition [2],IC50 [4],further results
CC(=O)Oc1ccc(C(OC(C)=O)c2cc(-c3ccccc3)cc(-c3ccccc3)c2)cc1 (stereo not given),1100 nM,–,–,–
CC(=O)Oc1ccc2c(c1)-c1ccccc1C2OC(C)=O (stereo not given),> 10000 nM,inactive,–,inhibition (IM-9): inactive
CC(=O)Oc1ccc(C(OC(C)=O)c2ccc3ccccc3c2)cc1 (stereo not given),2200 nM,–,–,–
CC(=O)Oc1ccc(C(OC(C)=O)c2c3ccccc3cc3ccccc23)cc1 (stereo not given),120 nM,85%,230 nM,inhibition [3]: 32%
CC(=O)Nc1ccc(C(OC(C)=O)c2ccccc2)cc1 (stereo not given),–,–,–,inhibition (HL-60): inactive
C=C[C@H](OC(C)=O)c1ccc(OC(C)=O)cc1 [1'-ACETOXYCHAVICOL ACETATE],2000 nM,70%,2100 nM,inhibition [3]: 0%
CC(=O)Oc1ccc2c(c1)CCc1ccccc1C2OC(C)=O (stereo not given),2800 nM,–,–,–
CC(=O)Oc1ccc(C(OC(C)=O)c2ccccc2)cc1 (stereo not given),3500 nM,61%,2500 nM,–
CC(=O)Oc1ccc(C(OC(C)=O)c2cccc3ccccc23)cc1 (stereo not given),290 nM,–,–,–
CC(=O)NC(c1ccccc1)c1ccc(OC(C)=O)cc1 (stereo not given),–,–,–,inhibition (HL-60): inactive
